From ChEMBL document CHEMBL1201862, “PubChem BioAssay data set” (2004)
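Step 1: Grow cells in 96-well plates. Step 2: Expose to compound for 48 hours at 5 concentrations. Step 3: Interpolate endpoints linearly; if unreached, use highest concentration. GI50 marks 50% less growth.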 Activity calls are given as the source filed them. Rule as the data show it: active = GI50 up to about 1.1 µM and inactive = higher.

Key:
Test in all cases: NCI-60 cell line screen, 48 h
DMS-114 = test system: DMS-114
DLD-1 = test system: DLD-1
KM-20L2 = test system: KM-20L2
XF498 = test system: XF498
HOP-18 = test system: HOP-18
M19-MEL = test system: M19-MEL
LXFL 529 = test system: LXFL 529
DMS-273 = test system: DMS-273
RXF 631 = test system: RXF 631

Structure (SMILES)	GI50 (DMS-114)	GI50 (DLD-1)	GI50 (KM-20L2)	GI50 (XF498)	GI50 (HOP-18)	GI50 (M19-MEL)	GI50 (LXFL 529)	GI50 (DMS-273)	GI50 (RXF 631)
NCCCNCCSSCCCCS(=O)O	> 100 µM (inactive)	45.8 µM (inactive)	> 100 µM (inactive)	18.2 µM (inactive)	> 100 µM (inactive)	12.6 µM (inactive)	23 µM (inactive)	35.8 µM (inactive)	> 100 µM (inactive)
O=C(Nc1nc2ncn(CCOC(=O)c3ccccc3)c2c(=O)[nH]1)c1ccccc1			6.9 µM (inactive)	20.2 µM (inactive)	> 100 µM (inactive)		22.7 µM (inactive)		15.4 µM (inactive)
O=C(N/N=C(/c1nc2ccc(Cl)cc2[nH]c1=O)C(O)c1ccc(Cl)cc1Cl)c1ccncc1 (stereo unspecified)	> 100 µM (inactive)	> 100 µM (inactive)	> 100 µM (inactive)			> 100 µM (inactive)	> 100 µM (inactive)	> 100 µM (inactive)	> 100 µM (inactive)
NC(=S)N/N=C(\C(=O)Nc1cccc([N+](=O)[O-])c1)c1nc2ccc([N+](=O)[O-])cc2nc1O	20.7 µM (inactive)	42 µM (inactive)	37.2 µM (inactive)	36.1 µM (inactive)	15 µM (inactive)	> 100 µM (inactive)	71.1 µM (inactive)	44.4 µM (inactive)	> 100 µM (inactive)
COc1ccc(S(=O)(=O)NNS(C)(=O)=O)cc1	> 100 µM (inactive)	87.5 µM (inactive)	> 100 µM (inactive)	60.3 µM (inactive)		> 100 µM (inactive)	> 100 µM (inactive)	> 100 µM (inactive)	> 100 µM (inactive)
CC(=O)Nc1ccc(-c2nnc(SCC(=O)Nc3ccc(C)cc3)o2)cc1	14.8 µM (inactive)	14.9 µM (inactive)	19.5 µM (inactive)		17.4 µM (inactive)	17.6 µM (inactive)	16.3 µM (inactive)	15.9 µM (inactive)	
Cc1cccc2[n+]1[C@H]1[C@H]([C@@H]3O[C@H]1c1ccccc13)[S+]([O-])N2 (stereo partly specified)	22.7 µM (inactive)	> 100 µM (inactive)	42.7 µM (inactive)	20.2 µM (inactive)	21.2 µM (inactive)	29.9 µM (inactive)	33.7 µM (inactive)	27.2 µM (inactive)	> 100 µM (inactive)
N#C/C(=C\c1cc2ccccc2c2ccccc12)c1ccccc1		5.6 µM (inactive)	3.9 µM (inactive)	3.22 µM (inactive)	18.7 µM (inactive)	7.29 µM (inactive)	14.4 µM (inactive)	3.05 µM (inactive)	
COc1cc(C2C(C(=O)Nc3ccc([N+](=O)[O-])cc3)=C(C)NC(C)=C2C(=O)Nc2ccc([N+](=O)[O-])cc2)ccc1O	24.1 µM (inactive)	25.6 µM (inactive)	18.5 µM (inactive)	23.8 µM (inactive)	27.6 µM (inactive)	19.3 µM (inactive)	18.3 µM (inactive)	21.9 µM (inactive)	32.5 µM (inactive)
Cc1ccc(C)c(NC(=O)CCc2nnc(S)[nH]2)c1	28.7 µM (inactive)	54.1 µM (inactive)	> 100 µM (inactive)	> 100 µM (inactive)	> 100 µM (inactive)	> 100 µM (inactive)	> 100 µM (inactive)	> 100 µM (inactive)	> 100 µM (inactive)
Cc1cc(NC(=O)NC(=O)c2ccccc2N(C)C)ccc1Oc1ncc(Br)cn1	0.219 µM (active)	0.373 µM (active)	0.284 µM (active)	0.288 µM (active)	> 100 µM (inactive)	0.455 µM (active)	0.39 µM (active)		
COc1ccc([C@@H]2OC(=O)C3C2C(=O)O[C@H]3c2ccc(OC)c(OC)c2)cc1OC (stereo partly specified)	> 100 µM (inactive)		> 100 µM (inactive)	> 100 µM (inactive)	> 100 µM (inactive)	> 100 µM (inactive)		> 100 µM (inactive)	> 100 µM (inactive)
COc1ccc(NC(=O)COC(=O)c2cccc3c(=O)c4ccccc4[nH]c23)cc1	17.2 µM (inactive)	13.9 µM (inactive)	21.5 µM (inactive)	19.9 µM (inactive)	27 µM (inactive)	19.2 µM (inactive)	17.3 µM (inactive)		
COc1ccc(C2c3cc4c(cc3OC(O)(CO)C2C(=O)O)OCO4)c(OC)c1OC.COc1ccc(C2c3cc4c(cc3OC3(O)COC(=O)C23)OCO4)c(OC)c1OC (stereo unspecified)	> 100 µM (inactive)	> 100 µM (inactive)	> 100 µM (inactive)	> 100 µM (inactive)	> 100 µM (inactive)	> 100 µM (inactive)		> 100 µM (inactive)	
COc1ccc(CC(=O)c2cc(OC)c(OC)cc2C)cc1OC	14.7 µM (inactive)	> 100 µM (inactive)	> 100 µM (inactive)	25.5 µM (inactive)		37.6 µM (inactive)	24.8 µM (inactive)		
Cn1ncc2c(c1=O)Nc1ccccc1S2(=O)=O	22 µM (inactive)	> 100 µM (inactive)	> 100 µM (inactive)		> 100 µM (inactive)	> 100 µM (inactive)	80.4 µM (inactive)	> 100 µM (inactive)	
CCOc1cc2c[n+](C)c3c4cc(OC)c(OC)cc4ccc3c2cc1OC	> 100 µM (inactive)	> 100 µM (inactive)	> 100 µM (inactive)		60.8 µM (inactive)	> 100 µM (inactive)	> 100 µM (inactive)		4.07 µM (inactive)
CC(C)(C)c1cc(Cc2ccc([N+](C)(C)C)cc2)c(O)c(C(C)(C)C)c1	7.19 µM (inactive)	45.4 µM (inactive)	21.9 µM (inactive)	13 µM (inactive)	20.1 µM (inactive)	12.9 µM (inactive)	13.8 µM (inactive)	9.64 µM (inactive)	45.6 µM (inactive)
CC(=O)C1=C(C)Cn2c(=O)c3ccccc3c(=O)n2C1	> 100 µM (inactive)	> 100 µM (inactive)	> 100 µM (inactive)			> 100 µM (inactive)	> 100 µM (inactive)	> 100 µM (inactive)	> 100 µM (inactive)
Cc1ccc(C)c(N2C(=O)C(=O)C(c3nc4ccccc4s3)C(=O)C2=O)c1	> 100 µM (inactive)	> 100 µM (inactive)	> 100 µM (inactive)			> 100 µM (inactive)	> 100 µM (inactive)	> 100 µM (inactive)	
O=C1/C(=C/c2ccc(Cl)cc2)CNC/C1=C\c1ccc(Cl)cc1		2.38 µM (inactive)	2.64 µM (inactive)	2.83 µM (inactive)	4.89 µM (inactive)	2.1 µM (inactive)	1.09 µM (active)	1.98 µM (inactive)	2.79 µM (inactive)
Nc1nc2c(ncn2C2OC(CO)C(O)C2N)c(=O)[nH]1 (stereo unspecified)	> 100 µM (inactive)	> 100 µM (inactive)		> 100 µM (inactive)		> 100 µM (inactive)	> 100 µM (inactive)	> 100 µM (inactive)	79.6 µM (inactive)
Cc1cccc(C)c1NC(=O)C(=O)CC(=O)c1cccc([N+](=O)[O-])c1		> 100 µM (inactive)	> 100 µM (inactive)	> 100 µM (inactive)	> 100 µM (inactive)	> 100 µM (inactive)	> 100 µM (inactive)	> 100 µM (inactive)	
